Consider ten compounds from ChEMBL document CHEMBL5518188, “Discovery of 4-amino-1,6-dihydro-7H-pyrrolo[2,3-d]pyridazin-7-one derivatives as potential receptor-interacting serine/threonine-protein kinase 1 (RIPK1) inhibitors” (Eur J Med Chem, 2024).

The term EC50 denotes the concentration at which the effect is half-maximal. A lower EC50 goes with greater potency. What is called IC50 is the concentration that inhibits the measured activity by half. The half-life is how long it takes for the measured level to halve. Usually Cmax stands for the highest concentration seen after dosing. As a reminder, the Tmax is the time at which the peak concentration occurs. In general, clearance refers to a measure of how efficiently the substance is removed, as volume per time. Low values mean a low capacity for elimination, high ones a high capacity for elimination. By bioavailability is commonly meant the share of a dose that reaches the circulation, judged against a reference dose that is usually intravenous. Low values mean little systemic uptake, high ones much systemic uptake. The term AUC(0-t) denotes the area under the concentration-time curve up to a stated or last time point.

The subject of one series is HT-29. Briefly: Anti-necroptosis activity against TSZ-induced human HT-29 cells. Type of series: functional, cell-based.
Another series deals with U-937. Briefly: Anti-necroptosis activity against TSZ-induced human U-937 cells. Type of series: functional, cell-based.
A further series has as its system L929. Nature of the series: Anti-necroptosis activity against TSZ-induced mouse L929 cells. Type of series: functional, cell-based.
In the next series the test system is Mus musculus. Briefly: In vivo anti-necrotptic activity in SIRS mouse model assessed as protection from body temperature loss at 10 mg/kg, po measured upto 6 hrs. Type of series: functional, organism-based.
Series [1] concerns the target T1, Receptor-interacting serine/threonine-protein kinase 1 (Homo sapiens, UniProt Q13546).
T1 sequence (Q13546 whole entry): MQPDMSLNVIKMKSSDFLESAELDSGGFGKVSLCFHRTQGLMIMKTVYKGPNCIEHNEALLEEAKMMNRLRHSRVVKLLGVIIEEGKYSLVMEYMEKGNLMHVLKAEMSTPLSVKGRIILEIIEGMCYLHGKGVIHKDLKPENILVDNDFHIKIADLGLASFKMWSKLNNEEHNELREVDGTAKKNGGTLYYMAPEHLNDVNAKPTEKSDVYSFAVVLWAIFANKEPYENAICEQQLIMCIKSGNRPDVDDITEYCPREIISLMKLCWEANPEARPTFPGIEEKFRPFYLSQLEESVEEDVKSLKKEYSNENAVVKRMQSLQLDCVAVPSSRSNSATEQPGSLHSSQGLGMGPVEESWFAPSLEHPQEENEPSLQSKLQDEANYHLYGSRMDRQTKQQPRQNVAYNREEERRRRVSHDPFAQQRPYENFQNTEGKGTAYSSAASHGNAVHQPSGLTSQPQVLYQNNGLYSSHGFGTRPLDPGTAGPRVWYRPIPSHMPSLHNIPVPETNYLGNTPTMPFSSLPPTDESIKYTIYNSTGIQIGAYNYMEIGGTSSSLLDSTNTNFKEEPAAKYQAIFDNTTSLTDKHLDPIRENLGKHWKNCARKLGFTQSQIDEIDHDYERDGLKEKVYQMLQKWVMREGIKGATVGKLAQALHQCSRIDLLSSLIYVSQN
Nature of the series: Inhibition of RIPK1 (unknown origin) in presence of ATP by kinaseProfiler assay.

Series [2] in a line: Metabolic stability in cryopreserved human liver microsome assessed as half life. The settings on record: cryopreserved liver microsomes. Type of series: ADME.
The nature of series [3]: Oral bioavailability in BALB/c mouse at 10 mg/kg. Type of series: ADME, organism-based. Particulars: in vivo; for bioavailability: BALB/c.
Series [4] can be described thus: Cmax in BALB/c mouse at 10 mg/kg, po. Particulars: in vivo. Type of series: ADME, organism-based.
The nature of series [5]: Tmax in BALB/c mouse at 10 mg/kg, po. Type of series: ADME, organism-based. Particulars: in vivo.
The nature of series [6]: Half life in BALB/c mouse at 10 mg/kg, po. Type of series: ADME, organism-based. The settings on record: in vivo.
Series [7] in a line: Clearance in BALB/c mouse at 10 mg/kg, po. Type of series: ADME, organism-based. Particulars: in vivo, po, 10 mg/kg.
A short description of series [8]: AUC (0 to t) in BALB/c mouse at 10 mg/kg, po. Type of series: ADME, organism-based. Particulars: in vivo, po, 10 mg/kg.
Series [9] is described as follows: Apparent volume of distribution in BALB/c mouse at 10 mg/kg, po. Type of series: ADME, organism-based. The settings on record: in vivo.
Series [10] is described as follows: Cmax in BALB/c mouse at 10 mg/kg, iv. The settings on record: in vivo. Type of series: ADME, organism-based.
Series [11] is described as follows: Tmax in BALB/c mouse at 10 mg/kg, iv. Type of series: ADME, organism-based. The settings on record: in vivo.
A short description of series [12]: Half life in BALB/c mouse at 10 mg/kg, iv. Type of series: ADME, organism-based. Particulars: in vivo.
Series [13] in a line: Clearance in BALB/c mouse at 10 mg/kg, iv. Type of series: ADME, organism-based. The settings on record: in vivo.
The nature of series [14]: AUC (0 to t) in BALB/c mouse at 10 mg/kg, iv. Type of series: ADME, organism-based. The settings on record: in vivo, iv, 10 mg/kg.
Series [15] in a line: Apparent volume of distribution in BALB/c mouse at 10 mg/kg, iv. Type of series: ADME, organism-based. Particulars: in vivo, read-out: Vz.
The nature of series [16]: Cmax in BALB/c mouse at 5 mg/kg, iv. Type of series: ADME, organism-based. Particulars: in vivo.
Series [17] is described as follows: Tmax in BALB/c mouse at 5 mg/kg, iv. Type of series: ADME, organism-based. The settings on record: in vivo.
The nature of series [18]: Half life in BALB/c mouse at 5 mg/kg, iv. Type of series: ADME, organism-based. Particulars: in vivo.
Series [19] in a line: AUC (0 to t) in BALB/c mouse at 5 mg/kg, iv. Type of series: ADME, organism-based. Particulars: in vivo.

The source made the active and inactive calls. The rule behind the calls is not given here.

For `CN1C(=O)[C@@H](NC(=O)c2n[nH]c(Cc3ccccc3)n2)COc2ccccc21` [GSK2982772], the EC50 turned out to be 2.78 nM with HT-29, 1.27 nM in the series with U-937 and 1260 nM in the series on L929. Besides, in the series on Mus musculus, the result was Active.

As to `Nc1n[nH]c(=O)c2c1c(-c1ccc3c(c1)CCN3C(=O)Cc1cccc(C(F)(F)F)c1)cn2CC1CC1`, in series [1], the 50% inhibitory concentration (IC50) was found to be 125 nM. Moreover, the concentration giving a half-maximal response (EC50) with HT-29 amounted to 6.01 nM; in the series on U-937, 1.88 nM; in the series on L929 it was 1.17 nM. Further, the half-life is 1.99 h in series [2] and 21 h in series [12]. Further, the F in [3] (po, 10 mg/kg) was 22.49%. The peak concentration (Cmax) in series [4] and in series [10] was 45.5 ng/mL throughout. Also, the time to peak (Tmax) in [5] was found to be 0.14 h; in series [11], 2 h. In [6] (po, 10 mg/kg), this compound returned a t1/2 of 20.99 h. In [7], the CL is 48.7 mL/min/kg. For the same compound, the AUCt in series [8] and in [14] was 2048.56 ng·h/mL throughout. Further, the Vz in series [9] was determined as 2.8 L/kg. The compound also gave a clearance in series [13] of 48.7 mL/min/kg. Besides, the Vd in series [15] was 91 L/kg.

For the compound `CCn1nc(-c2ccc3c(c2)CCN3C(=O)Cc2cccc(OC(F)(F)F)c2)c2c(N)n[nH]c(=O)c21`, in series [1], the IC50 turned out to be 42.7 nM. The concentration giving a half-maximal response (EC50) turned out to be 16.1 nM with HT-29, 4.45 nM in the series on U-937 and 9.79 nM in the series on L929. In addition, the half-life in series [2] was greater than 2 h. The compound also displayed a bioavailability in series [3] of 4.36%.

For the compound `CCn1cc(-c2ccc3c(c2)CCN3C(=O)Cc2cccc(OC(F)(F)F)c2)c2c(N)n[nH]c(=O)c21`, the IC50 in [1] came to 60.5 nM. The EC50 in the series on HT-29 was determined as 5.45 nM; in the series with U-937 it was 1.74 nM; in the series on L929, 5.99 nM. Further, the half-life in series [2] is 1.11 h.

Take `Nc1n[nH]c(=O)c2c1c(-c1ccc3c(c1)CCN3C(=O)Cc1cccc(OC(F)(F)F)c1)nn2CC1COC1`: in series [1], the concentration for half-maximal inhibition (IC50) came out at 73.7 nM. In addition, the EC50 in the series on HT-29 stood at 15.1 nM; with U-937 it was 5.09 nM; with L929, 5.89 nM. Moreover, the half-life in series [2] worked out at 0.332 h.

Consider `CC(C)=CCn1nc(-c2ccc3c(c2)CCN3C(=O)Cc2cccc(OC(F)(F)F)c2)c2c(N)n[nH]c(=O)c21`, for which the IC50 in [1] stood at 64.3 nM. Also, the concentration for a half-maximal effect (EC50) in the series with HT-29 came out at 11.3 nM; in the series with U-937, 22.7 nM; in the series with L929, 1.38 nM. Besides, the half-life in series [2] is 0.444 h.

On to `Nc1n[nH]c(=O)c2c1c(-c1ccc3c(c1)CCN3C(=O)Cc1cccc(OC(F)(F)F)c1)nn2CCC1CNC1`, for which, in series [1], the half-inhibitory concentration (IC50) was greater than 1000 nM. Also, the results for the EC50 with HT-29, in the series with U-937 and in the series with L929 were greater than 1000 nM, greater than 1000 nM and 366 nM, respectively. Besides, the half-life in [2] was determined as 1.67 h.

As for `CCCCn1nc(-c2ccc3c(c2)CCN3C(=O)Cc2cccc(OC(F)(F)F)c2)c2c(N)n[nH]c(=O)c21`, the IC50 in [1] is 105 nM. Further, the EC50 with HT-29 was found to be 8.23 nM; in the series with U-937, 15.5 nM; with L929 it was 1.2 nM. The half-life in series [2] was determined as 0.305 h.

Regarding `Nc1n[nH]c(=O)c2c1c(-c1ccc3c(c1)CCN3C(=O)Cc1cccc(OC(F)(F)F)c1)nn2CC1CC1`, in series [1], the IC50 was determined as 110 nM. Further, the concentration giving a half-maximal response (EC50) with HT-29 is 2.61 nM; in the series with U-937 it was 3.89 nM; in the series on L929 it was 0.48 nM. Also, the half-life in series [2] is 0.813 h; in series [18], 11.7 h; in series [6] (BALB/c), 2.58 h. The bioavailability in series [3] is 44.1%. Also, the peak concentration (Cmax) was found to be 3290 ng/mL in series [16] and 1090 ng/mL in series [4]. In addition, the time of peak concentration (Tmax) in series [17] came to 8.4 min; in series [5] it was 1 h. In series [19], this compound showed an AUC(0-t) of 6930 ng·h/mL. In series [8], this compound yielded an AUCt of 6121.97 ng·h/mL. In series [9], the Vz came to 6007.49 L/kg.

With `CC(C)Cn1cc(-c2ccc3c(c2)CCN3C(=O)Cc2cccc(OC(F)(F)F)c2)c2c(N)n[nH]c(=O)c21`, in [1], the IC50 was 44.7 nM. Besides, the EC50 with HT-29 was 1.61 nM; with U-937, 1.84 nM; with L929 it was 8.8 nM. For the same compound, the half-life in series [2] is 0.327 h.
